Test results: patent US20090202518A1, “Treatment of sepsis and inflammation with alpha2A Adrenergic antagonists” (The Feinstein Institute of Medical Research, priority 2005, published 2009)
“Also recorded” adds a separate entry of the source.

Experiments:
Kupffer cells (KCs) = assay: TNF-α release from cultured Kupffer cells; format: cell-based
Source text: The nervous system regulates the inflammatory response in real time. Our previous studies have shown that the sympathetic neurotransmitter, norepinephrine (NE), increases TNF-α release via activation of α2A-adrenoceptor (α2A-AR) on Kupffer cells (KCs). In cultured KCs, NE increases the release of TNF-α by 3.4-fold and a specific antagonist for α2A-AR, BRL-44408 maleate, reduces TNF-α secretion by 51%. However, it remains unknown whether in vivo administration of α2A-AR antagonists in sepsis is beneficial.

[1] = system: male rats with sepsis induced by cecal ligation and puncture (CLP); assay: Cecal ligation and puncture (CLP) model of sepsis in rats; format: in vivo, rat
Protocol: Sepsis was induced in male rats by cecal ligation and puncture (CLP). The CLP model of sepsis has been used extensively as a reliable model of the pathophysiologic and immunologic alterations in human sepsis.
BRL-44408 maleate (2.5 mg/kg BW) was administered intravenously at the time of CLP. Twenty hours after CLP, the rats were sacrificed and blood and liver samples were collected. Serum levels of TNF-α, liver enzymes (i.e., AST and ALT), lactate and creatinine were measured. Gene expression of TNF-α in the liver was analyzed. In additional groups of animals, the necrotic cecum was excised at 20 h post-CLP and the 10-day survival was recorded.

[2] = 2.5 mg/kg BW intravenously at the time of CLP, 20 h after CLP, means±SE, n = 6/group

SMILES | reduction of TNF-α secretion (Kupffer cells (KCs)) [%] | ALT (serum level) [1, 2] [IU/L] | AST (serum level) [1, 2] [IU/L] | Creatinine (serum level) [1, 2] [mg/dL] | Lactate (serum level) [1, 2] [mg/dL] | TNF-α (serum level) [1, 2] [pg/mL] | TNF-α/G3PDH (mRNA) ([1]; liver gene expression, 2.5 mg/kg BW intravenously at the time of CLP, 20 h after CLP, means±SE, n = 6/group) | 10-day survival / mortality ([1]; necrotic cecum excised at 20 h post-CLP, FIG. 1) | increase of the release of TNF-α (Kupffer cells (KCs)) [fold]
CC1c2ccccc2CN1CC1=NCCN1.O=C(O)/C=C\C(=O)O (stereo not drawn) [BRL-44408 maleate] | 51 | 20.5 ± 4.5 | 20.9 ± 5.3 | 1.1 ± 0.2 | 20.6 ± 1.9 | 91.8 ± 8.1 | 0.5 ± 0.1 | increased survival; also recorded: reduced mortality | –
NC[C@H](O)c1ccc(O)c(O)c1 [NE, norepinephrine] | – | – | – | – | – | – | – | – | 3.4
